Common to all, as to format: cell-based
Experiment [1] concerns wheat scab fungi (Fusarium graminearum and Fusarium asiaticum). Kind of experiment: organism not typed. As to conditions: for inhibition at 0.125 µg/mL / inhibition at 0.25 µg/mL / inhibition at 0.5 µg/mL: read-out: Mycelial growth inhibition rate (MGIR); for inhibition at 0.5 µg/mL: 0.5 mg/L.
Experiment [2] relates to rice bakanae disease pathogen (Fusarium moniliforme). The experiment is described as follows: microbe, parasite or virus in culture. As to conditions: 1 mg/L; for inhibition at 1 µg/mL: Fusarium verticillioides, read-out: Mycelial growth inhibition rate.
Experiment [3] deals with melon Fusarium wilt pathogen (Fusarium oxysporum). Kind of experiment: microbe, parasite or virus in culture. As to conditions: 1 mg/L; for inhibition at 1 µg/mL: Fusarium, read-out: Mycelial growth inhibition rate.
In experiment [4] the test system is banana Fusarium wilt pathogen (Fusarium oxysporum). The experiment is described as follows: microbe, parasite or virus in culture. As to conditions: 1 mg/L; for inhibition at 1 µg/mL: Fusarium, read-out: Mycelial growth inhibition rate.

Take `CCCOC(=O)/C(C#N)=C(\N)c1ccc(NC)cc1` [Compound 34]: in experiment [1] (0.125 mg/L), the inhibition (as a rule, the share of the control response that was lost under treatment) at 0.125 µg/mL was 74.1 ± 2.3%. The inhibition at 0.25 µg/mL in experiment [1] (0.25 mg/L) came to 84.9 ± 5.4%. Also, in experiment [1], the inhibition at 0.5 µg/mL is greater than 90%.

In the case of `CCOC(=O)/C(C#N)=C(\N)c1ccc(N)cc1` [Compound 1], in experiment [1] (0.125 mg/L), the inhibition at 0.125 µg/mL came to 65.5 ± 4.3%. In experiment [1] (0.25 mg/L), the inhibition at 0.25 µg/mL worked out at 81.2 ± 6.3%. Besides, in experiment [1], the inhibition at 0.5 µg/mL is greater than 90%.

Consider `CCCOC(=O)/C(C#N)=C(\N)c1ccc(N(CC)CC)cc1` [Compound 37], for which the inhibition at 0.125 µg/mL in experiment [1] (0.125 mg/L) worked out at 73.9 ± 5.5%. In addition, the inhibition at 0.25 µg/mL in experiment [1] (0.25 mg/L) amounted to 84.8 ± 7.1%. Further, the inhibition at 0.5 µg/mL in experiment [1] was greater than 90%.

With `CCOC(=O)/C(C#N)=C(\N)c1ccc(N(CC)CC)cc1` [Compound 11], the inhibition at 1 µg/mL in experiment [2], in experiment [3] and in experiment [4] was greater than 90% each time. Moreover, the inhibition at 0.125 µg/mL in experiment [1] (0.125 mg/L) is greater than 90%. The inhibition at 0.25 µg/mL in experiment [1] (0.25 mg/L) was greater than 90%. Also, the inhibition at 0.5 µg/mL in experiment [1] was greater than 90%.

Consider `CCCOC(=O)/C(C#N)=C(\N)c1ccc(NCC)cc1` [Compound 35], for which the inhibition at 0.125 µg/mL in experiment [1] (0.125 mg/L) came to 76.6 ± 3.3%. Moreover, the inhibition at 0.25 µg/mL in experiment [1] (0.25 mg/L) was found to be 85.8 ± 1.8%. For the same compound, in experiment [1], the inhibition at 0.5 µg/mL was greater than 90%.

For `CCOC(=O)/C(C#N)=C(\N)c1ccc(N2CCC2)cc1` [Compound 15], the inhibition at 0.125 µg/mL in experiment [1] (0.125 mg/L) was found to be 84.2 ± 4.5%. Besides, in experiment [1] (0.25 mg/L), the inhibition at 0.25 µg/mL was greater than 90%. Moreover, in experiment [1], the inhibition at 0.5 µg/mL was greater than 90%.

As for `CCOC(=O)/C(C#N)=C(\N)c1ccc(N2CCCCC2)cc1` [Compound 17], the inhibition at 0.125 µg/mL in experiment [1] (0.125 mg/L) turned out to be 81.4 ± 5.5%. Also, in experiment [1] (0.25 mg/L), the inhibition at 0.25 µg/mL is greater than 90%. Further, the inhibition at 0.5 µg/mL in experiment [1] is greater than 90%.

Turning to `CCN(CC)c1ccc(/C(N)=C(\C#N)C(=O)OC)cc1` [Compound 28], the inhibition at 0.125 µg/mL in experiment [1] (0.125 mg/L) was determined as 74.4 ± 3.8%. The inhibition at 0.25 µg/mL in experiment [1] (0.25 mg/L) was 85.3 ± 3.3%. Besides, the inhibition at 0.5 µg/mL in experiment [1] is greater than 90%.

With phenamacril [reference compound], the “Mycelial growth inhibition rate” value in experiment [2], in experiment [3] and in experiment [4] was 25% throughout. Also, the “Mycelial growth inhibition rate (MGIR)” value worked out at 21.1 ± 2.3% in experiment [1] (0.125 mg/L) and 36.1 ± 5.0% in experiment [1] (0.25 mg/L).

On to `CCOC(=O)/C(C#N)=C(\N)c1ccc(NC)cc1` [Compound 2], for which the inhibition at 1 µg/mL in experiment [2], in experiment [3] and in experiment [4] was greater than 90% in each case. Further, the inhibition at 0.125 µg/mL in experiment [1] (0.125 mg/L) is greater than 90%. Moreover, the inhibition at 0.25 µg/mL in experiment [1] (0.25 mg/L) was greater than 90%. The inhibition at 0.5 µg/mL in experiment [1] is greater than 90%.

For the compound `CCCOC(=O)/C(C#N)=C(\N)c1ccc(N(C)C)cc1` [Compound 36], the inhibition at 0.125 µg/mL in experiment [1] (0.125 mg/L) stood at 75.2 ± 3.3%. Moreover, in experiment [1] (0.25 mg/L), the inhibition at 0.25 µg/mL is 85.4 ± 3.9%. The inhibition at 0.5 µg/mL in experiment [1] was greater than 90%.

As for `CCOC(=O)/C(C#N)=C(\N)c1ccc(N(C)CC)cc1` [Compound 8], the inhibition at 0.125 µg/mL in experiment [1] (0.125 mg/L) was 88.3 ± 4.5%. In addition, the inhibition at 0.25 µg/mL in experiment [1] (0.25 mg/L) is greater than 90%. In experiment [1], the inhibition at 0.5 µg/mL is greater than 90%.

Regarding `CCOC(=O)/C(C#N)=C(\N)c1ccc(N2CCCC2)cc1` [Compound 16], the inhibition at 0.125 µg/mL in experiment [1] (0.125 mg/L) stood at 82.3 ± 2.5%. Also, in experiment [1] (0.25 mg/L), the inhibition at 0.25 µg/mL was greater than 90%. Moreover, the inhibition at 0.5 µg/mL in experiment [1] was greater than 90%.

For `CCNc1ccc(/C(N)=C(\C#N)C(=O)OCC)cc1` [Compound 3], the inhibition at 1 µg/mL in experiment [2], in experiment [3] and in experiment [4] was greater than 90% each time. Moreover, the inhibition at 0.125 µg/mL in experiment [1] (0.125 mg/L) is greater than 90%. In addition, the inhibition at 0.25 µg/mL in experiment [1] (0.25 mg/L) was greater than 90%. In experiment [1], the inhibition at 0.5 µg/mL was greater than 90%.

These data come from patent publication US20240298639A1 (priority 2021, published 2024).
